From the supplement of paper PMC10307832

What was measured:
Test in all cases: relative viability (nuclei count vs DMSO), 5 days (fraction); higher = more cells survive
BX 795 + Dasatinib = compound: O=C(NCCCNc1nc(Nc2cccc(NC(=O)N3CCCC3)c2)ncc1I)c1cccs1 [BX 795] + Cc1nc(Nc2ncc(C(=O)Nc3c(C)cccc3Cl)s2)cc(N2CCN(CCO)CC2)n1 [Dasatinib] (partner 0.075 µM)
In short: (§1)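 One day after seeding in 1536-well plates, lung cancer cell lines were dosed by pin tool. Dosing was either single-drug or a fixed anchor-drug dose plus five library-drug doses (not always all listed) in √10 steps. After 5 days, nuclei were stained in one fix-and-stain step and counted on 4× images, and relative viability is the nuclei count of treated wells over that of vehicle wells, given as the median of duplicate plates.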

BX 795 + Lapatinib = compound: O=C(NCCCNc1nc(Nc2cccc(NC(=O)N3CCCC3)c2)ncc1I)c1cccs1 [BX 795] + CS(=O)(=O)CCNCc1ccc(-c2ccc3ncnc(Nc4ccc(OCc5cccc(F)c5)c(Cl)c4)c3c2)o1 [Lapatinib] (partner 2 µM)
In short: as §1

BX 795 + Foretinib = compound: O=C(NCCCNc1nc(Nc2cccc(NC(=O)N3CCCC3)c2)ncc1I)c1cccs1 [BX 795] + COc1cc2c(Oc3ccc(NC(=O)C4(C(=O)Nc5ccc(F)cc5)CC4)cc3F)ccnc2cc1OCCCN1CCOCC1 [Foretinib] (partner 0.25 µM)
In short: as §1

BX 795 + Vorinostat = compound: O=C(NCCCNc1nc(Nc2cccc(NC(=O)N3CCCC3)c2)ncc1I)c1cccs1 [BX 795] + O=C(CCCCCCC(=O)Nc1ccccc1)NO [Vorinostat] (partner 1 µM)
In short: as §1

BX 795 + Trametinib = compound: O=C(NCCCNc1nc(Nc2cccc(NC(=O)N3CCCC3)c2)ncc1I)c1cccs1 [BX 795] + CC(=O)Nc1cccc(-n2c(=O)n(C3CC3)c(=O)c3c(Nc4ccc(I)cc4F)n(C)c(=O)c(C)c32)c1 [Trametinib] (partner 0.02 µM)
In short: as §1

Cell Line | relative viability (BX 795 + Dasatinib; first compound 0.04 µM) | relative viability (BX 795 + Dasatinib; first compound 0.1265 µM) | relative viability (BX 795 + Dasatinib; first compound 0.4 µM) | relative viability (BX 795 + Dasatinib; first compound 1.265 µM) | relative viability (BX 795 + Lapatinib; first compound 0.04 µM) | relative viability (BX 795 + Lapatinib; first compound 0.1265 µM) | relative viability (BX 795 + Lapatinib; first compound 0.4 µM) | relative viability (BX 795 + Lapatinib; first compound 1.265 µM) | relative viability (BX 795 + Foretinib; first compound 0.04 µM) | relative viability (BX 795 + Foretinib; first compound 0.1265 µM) | relative viability (BX 795 + Foretinib; first compound 0.4 µM) | relative viability (BX 795 + Foretinib; first compound 1.265 µM) | relative viability (BX 795 + Vorinostat; first compound 0.04 µM) | relative viability (BX 795 + Vorinostat; first compound 0.1265 µM) | relative viability (BX 795 + Vorinostat; first compound 0.4 µM) | relative viability (BX 795 + Vorinostat; first compound 1.265 µM) | relative viability (BX 795 + Trametinib; first compound 0.04 µM) | relative viability (BX 795 + Trametinib; first compound 0.1265 µM) | relative viability (BX 795 + Trametinib; first compound 0.4 µM) | relative viability (BX 795 + Trametinib; first compound 1.265 µM)
201T | 0.627 | 0.617 | 0.629 | 0.635 | 1.1 | 1.04 | 1.12 | 1.01 | 1.2 | 1.13 | 0.952 | 1.21 | 1.06 | 0.991 | 1.23 | 1.12 | 0.763 | 0.749 | 0.76 | 0.766
A549 | – | – | – | – | 0.999 | 0.88 | 1 | 0.146 | 0.911 | 1.02 | 1.03 | 0.647 | – | – | – | – | – | – | – | –
A-427 | 0.796 | 0.611 | 0.709 | 0.545 | 0.842 | 1 | 1.06 | 0.886 | 0.98 | 1.12 | 1.07 | 0.897 | 0.915 | 0.812 | 0.872 | 0.754 | 0.757 | 0.733 | 0.72 | 0.625
ABC-1 | 0.522 | 0.618 | 0.557 | 0.546 | 1.17 | 1.58 | 1.14 | 0.917 | 1.03 | 1.05 | 0.929 | 0.601 | 0.961 | – | 1.24 | 0.922 | – | – | – | –
BEN | 0.334 | 0.315 | 0.367 | 0.299 | 0.663 | 0.841 | 0.607 | 0.672 | 0.54 | 0.645 | 0.818 | 0.803 | 0.591 | 0.559 | 0.582 | 0.526 | 1.12 | 1.12 | 0.933 | 1.13
CAL-12T | 0.521 | 0.387 | 0.281 | 0.129 | 0.738 | 0.624 | 0.608 | 0.29 | 1.16 | 1.13 | 0.873 | 1.07 | 0.661 | 0.715 | 0.523 | 0.413 | 0.273 | 0.298 | 0.322 | 0.24
COR-L23 | 0.533 | 0.496 | 0.382 | 0.298 | 1.14 | 1.17 | 0.884 | 0.663 | 1.07 | 0.97 | 0.909 | 0.715 | 0.379 | 0.458 | 0.205 | 0.106 | 0.622 | 0.628 | 0.509 | 0.344
COR-L 105 | 0.367 | 0.357 | 0.278 | 0.255 | 0.354 | 0.334 | 0.308 | 0.293 | 1.29 | 0.962 | 0.861 | 0.662 | 0.835 | 0.702 | 0.622 | 0.429 | 0.47 | 0.403 | 0.389 | 0.421
ChaGo-K-1 | 0.5 | 0.586 | 0.507 | 0.546 | – | – | – | – | 0.993 | 0.89 | 0.982 | 0.767 | 0.809 | 0.771 | 0.725 | 0.668 | 0.924 | 0.907 | 0.885 | 0.75
EKVX | 0.637 | 0.295 | 0.539 | 0.508 | 0.248 | 0.367 | 0.243 | 0.208 | 0.496 | 0.893 | 0.516 | 0.726 | 0.865 | 0.696 | 0.738 | 0.537 | 0.358 | 0.298 | 0.382 | 0.351
EMC-BAC-2 | 0.296 | 0.371 | 0.287 | 0.265 | 0.907 | 0.905 | 0.884 | 0.758 | 1.01 | 1.12 | 0.914 | 0.322 | 0.393 | 0.261 | 0.411 | 0.198 | 0.943 | 0.921 | 0.868 | 0.749
EPLC-272H | 0.436 | 0.329 | 0.274 | 0.267 | 1.01 | – | 0.893 | 0.677 | 0.739 | 0.721 | 0.653 | 0.527 | 0.533 | 0.472 | 0.354 | 0.219 | 0.293 | 0.32 | 0.275 | 0.325
H3255 | 0.361 | 0.307 | 0.346 | 0.386 | 0.289 | 0.234 | 0.256 | 0.255 | 0.965 | 0.764 | 1.02 | 0.848 | 0.79 | 0.797 | 0.938 | 0.754 | 0.616 | 0.666 | 0.655 | 0.565
HARA | 0.241 | 0.268 | 0.26 | 0.276 | 0.714 | 0.564 | 0.753 | 0.697 | 0.914 | 0.935 | 0.849 | 0.31 | 0.523 | 0.595 | 0.447 | 0.482 | 0.75 | 0.625 | 1.16 | 0.533
HCC-15 | 0.54 | 0.587 | 0.559 | 0.463 | 0.721 | 0.871 | 0.795 | 0.661 | 0.973 | 1.04 | 0.925 | 0.915 | 0.773 | 0.865 | 0.818 | 0.718 | 0.389 | 0.381 | 0.505 | 0.355
HCC-44 | – | – | – | – | 0.934 | 1.01 | 0.981 | 1.04 | – | – | – | – | 1.08 | 1.12 | 1.18 | 1.07 | 1.14 | 1.08 | 1.23 | 1.12
HCC-78 | 0.462 | 0.379 | 0.364 | 0.392 | 0.93 | 0.585 | 0.604 | 0.732 | 0.665 | 0.537 | 0.596 | 0.5 | 0.474 | 0.419 | 0.399 | 0.352 | 0.823 | 0.756 | 0.797 | 0.737
